Experimental data from patent US20230292752A1, “S[…] COMBINATIONS, COMPOSITIONS AND USE THEREOF” (UPL Corporation Limited, priority 2020, published 2023).

Columns and labels:
Type in all cases: in vivo
Bermuda grass = test: Pot trial, clethodim and pyraflufen-ethyl, Bermuda grass; conditions: 4 DAT
Procedure: (§1) Pot trials for clethodim, pyraflufen-ethyl and their combination (premix and tan-mix) were carried out against green foxtail, large crabgrass and Bermuda grass

Portulaca oleracea POROL = test: Field trial, clethodim and carfentrazone-ethyl, weed control on Portulaca oleracea
Procedure: (§2) Field trials were performed to evaluate the efficacy of present combination, clethodim and carfentrazone-ethyl on annual grass control and dicot control in perennial crops. • Grass weeds targeted: LOLSS, BROSS, ECHSS, DIGSS, SETS S • Dicot weeds targeted: ERISS, GERSS, Sonchus sp., CONAR, Malva sp (rosette stage when application, prior stem elongation, prior flowering, prior ground cover) • Application volume: 300 L/ha
(§3) Colby's equation was used to determine the herbicidal effects expected from the mixtures. (See Colby, S. R. Calculation of the synergistic and antagonistic response of herbicide combinations. Weeds 1967, 15, 20-22.)
(§4) The following equation was used to calculate the expected activity of mixtures containing two active ingredients, A and B:
(§5) Expected=A+B−(A×B/100) • A=observed efficacy of active component A at the same concentration as used in the mixture; • B=observed efficacy of active component B at the same concentration as used in the mixture. The ability of the compositions described herein to afford suitable weed control is illustrated by the efficacy data in Table 3 to 10
Biological Activity Observed with Synergistic Mixtures of Clethodim and Carfentrazone in Applications on Portulaca oleracea POROL (n=1) 14 DAA.

[1] = test system: Digitaria sanguinalis DIGSA; test: Field trial, clethodim and carfentrazone-ethyl, weed control on Digitaria sanguinalis
Procedure: as §2, §3, §4, §5
Biological Activity Observed with Synergistic Mixtures of Clethodim and Carfentrazone (Carfentrazone-ethyl) in Applications on Digitaria sanguinalis DIGSA (n=2) at 56-59 DAA was represented in table below.

Setaria pumila SETPU = test: Field trial, clethodim and carfentrazone-ethyl, weed control on Setaria pumila
Procedure: as §2, §3, §4, §5
Biological Activity Observed with Synergistic Mixtures of Clethodim and Carfentrazone in Applications on Setaria pumila SETPU (n=1) 56-59 DAA was represented in table below

[2] = test system: Convolvulus arvensis CONAR; test: Field trial, clethodim and carfentrazone-ethyl, weed control on Convolvulus arvensis
Procedure: as §2, §3, §4, §5
Biological Activity Observed with Synergistic Mixtures of Clethodim and Carfentrazone in Applications on Convolvulus arvensis CONAR (n=2) 14-15 DAA.

Green foxtail = test: Pot trial, clethodim and pyraflufen-ethyl, green foxtail; conditions: 4 DAT
Procedure: as §1

Lolium multiflorum LOLMU = test: Field trial, clethodim and carfentrazone-ethyl, weed control on Lolium multiflorum
Procedure: as §2, §3, §4, §5
Biological Activity Observed with Synergistic Mixtures of Clethodim and Carfentrazone in Applications on Lolium multiflorum LOLMU (n=2) 56-59 DAA was represented in table below

[3] = test system: Echinochloa crus-galli ECHCG; test: Field trial, clethodim and carfentrazone-ethyl, weed control on Echinochloa crus-galli
Procedure: as §2, §3, §4, §5
Biological Activity Observed with Synergistic Mixtures of Clethodim and Carfentrazone in Applications on Echinochloa crus-galli ECHCG (n=2) 56-59 DAA was represented in table below.

Sonchus oleraceus SONOL = test: Field trial, clethodim and carfentrazone-ethyl, weed control on Sonchus oleraceus
Procedure: as §2, §3, §4, §5
Biological Activity Observed with Synergistic Mixtures of Clethodim and Carfentrazone in Applications on Sonchus oleraceus SONOL (n=2) 14-15 DAA

Senecio vulgaris SENVU = test: Field trial, clethodim and carfentrazone-ethyl, weed control on Senecio vulgaris
Procedure: as §2, §3, §4, §5
Biological Activity Observed with Synergistic Mixtures of Clethodim and Carfentrazone in Applications on Senecio vulgaris SENVU (n=1) 14 DAA.

Setaria weeds = test: Trial on table grapes, clethodim and pyraflufen-ethyl, Setaria weed control; conditions: 28 days after treatment
Procedure: Clethodim and pyraflufen-ethyl were tested on table grapes as individual applications, premix and tank-mix combinations. The products were formulated as an EC formulation and compared with Glufosinate SC. Effect of the treatment was checked on Setaria weeds at 28 days after treatment.

Large crabgrass = test: Pot trial, clethodim and pyraflufen-ethyl, large crabgrass; conditions: 4 DAT
Procedure: as §1

[4] = clethodim 120 gai/ha, carfentrazone 0, n=1
[5] = clethodim 180 gai/ha, carfentrazone 0, n=1
[6] = clethodim 120 gai/ha, carfentrazone 0, n=2
[7] = clethodim 180 gai/ha, carfentrazone 0, n=2
[8] = clethodim 72 gai/ha, carfentrazone 0, n=1
[9] = carfentrazone 20 gai/ha, clethodim 0, n=1
[10] = carfentrazone 30 gai/ha, clethodim 0, n=1
[11] = carfentrazone 45 gai/ha, clethodim 0, n=1
[12] = carfentrazone 60 gai/ha, clethodim 0, n=1
[13] = carfentrazone 30 gai/ha, clethodim 0, n=2
[14] = carfentrazone 45 gai/ha, clethodim 0, n=2
[15] = carfentrazone 60 gai/ha, clethodim 0, n=2
[16] = carfentrazone 12 gai/ha, clethodim 0, n=1

For CCSC(C)CC1CC(=O)C(/C(CC)=N/OC/C=C/Cl)=C(O)C1 (stereo not shown) [Clethodim], the “% control (observed)” value (Bermuda grass; 250 gai/ha) was 20%, the “Observed Efficacy (O) in % (14 DAA)” value (Portulaca oleracea POROL; [4]) was 0% and the “Observed Efficacy (O) in % (14 DAA)” value (Portulaca oleracea POROL; [5]) was 0%. The “Observed Efficacy (O) in % (56-59 DAA)” value [1, 6] was 95%, the “Observed Efficacy (O) in % (56-59 DAA)” value [1, 7] was 97% and the “Observed Efficacy (O) in % (56-59 DAA)” value (Setaria pumila SETPU; [8]) was 43%. The “Observed Efficacy (O) in % (56-59 DAA)” value (Setaria pumila SETPU; [4]) was 50%, the “Observed Efficacy (O) in % (56-59 DAA)” value (Setaria pumila SETPU; [5]) was 94% and the “Observed Efficacy (O) in % (14-15 DAA)” value ([2]; clethodim 72 gai/ha, carfentrazone 0, n=2) was 8%. For the same molecule, the “Observed Efficacy (O) in % (14-15 DAA)” value [2, 6] was 12%, the “Observed Efficacy (O) in % (14-15 DAA)” value [2, 7] was 8% and the “% control (observed)” value (Green foxtail; 250 gai/ha) was 25%. The “Observed Efficacy (O) in % (56-59 DAA)” value (Lolium multiflorum LOLMU; [6]) was 52%, the “Observed Efficacy (O) in % (56-59 DAA)” value (Lolium multiflorum LOLMU; [7]) was 74% and the “Observed Efficacy (O) in % (56-59 DAA)” value [3, 6] was 84%. For the same molecule, the “Observed Efficacy (O) in % (56-59 DAA)” value [3, 7] was 97%, the “Observed Efficacy (O) in % (14-15 DAA)” value (Sonchus oleraceus SONOL; [6]) was 13% and the “Observed Efficacy (O) in % (14 DAA)” value (Senecio vulgaris SENVU; [8]) was 0%. The “Observed Efficacy (O) in % (14 DAA)” value (Senecio vulgaris SENVU; [4]) was 2%, the “Observed Efficacy (O) in % (14 DAA)” value (Senecio vulgaris SENVU; [5]) was 0% and the “Weed control % (Observed efficacy)” value (Setaria weeds; 125 g ai/ha) was 85%. For the same molecule, the “% control (observed)” value (Large crabgrass; 250 gai/ha) was 20%.
With CCOC(=O)COc1cc(-c2nn(C)c(OC(F)F)c2Cl)c(F)cc1Cl [Pyraflufen-ethyl] the “% control (observed)” value (Bermuda grass; 24 gai/ha) was 10%, the “% control (observed)” value (Green foxtail; 24 gai/ha) was 20% and the “Weed control % (Observed efficacy)” value (Setaria weeds; 12 g ai/ha, formulated with mineral oil) was 0%. The “% control (observed)” value (Large crabgrass; 24 gai/ha) was 10%.
In the case of CP(=O)(O)CCC(N)C(=O)O (stereo not shown) [Glufosinate], the “% control (observed)” value (Green foxtail; 350 gai/ha) is reported as 65%, the “% control (observed)” value (Green foxtail; 700 gai/ha) is reported as 75% and the “Weed control % (Observed efficacy)” value (Setaria weeds; 700 g ai/ha) is reported as 85%.
For CCOC(=O)C(Cl)Cc1cc(-n2nc(C)n(C(F)F)c2=O)c(F)cc1Cl (stereo not shown) [Carfentrazone, Carfentrazone-ethyl], the “Observed Efficacy (O) in % (14 DAA)” value (Portulaca oleracea POROL; [9]) was 90%, the “Observed Efficacy (O) in % (14 DAA)” value (Portulaca oleracea POROL; [10]) was 97% and the “Observed Efficacy (O) in % (14 DAA)” value (Portulaca oleracea POROL; [11]) was 100%. The “Observed Efficacy (O) in % (14 DAA)” value (Portulaca oleracea POROL; [12]) was 100%, the “Observed Efficacy (O) in % (56-59 DAA)” value [1, 13] was 13% and the “Observed Efficacy (O) in % (56-59 DAA)” value [1, 14] was 27%. For the same molecule, the “Observed Efficacy (O) in % (56-59 DAA)” value [1, 15] was 17%, the “Observed Efficacy (O) in % (56-59 DAA)” value (Setaria pumila SETPU; [16]) was 0% and the “Observed Efficacy (O) in % (56-59 DAA)” value (Setaria pumila SETPU; [9]) was 0%. For the same molecule, the “Observed Efficacy (O) in % (56-59 DAA)” value (Setaria pumila SETPU; [10]) was 0%, the “Observed Efficacy (O) in % (56-59 DAA)” value (Setaria pumila SETPU; [11]) was 0% and the “Observed Efficacy (O) in % (56-59 DAA)” value (Setaria pumila SETPU; [12]) was 0%. For the same molecule, the “Observed Efficacy (O) in % (14-15 DAA)” value ([2]; carfentrazone 12 gai/ha, clethodim 0, n=2) was 58%, the “Observed Efficacy (O) in % (14-15 DAA)” value [2, 15] was 93% and the “Observed Efficacy (O) in % (56-59 DAA)” value (Lolium multiflorum LOLMU; [13]) was 50%. The “Observed Efficacy (O) in % (56-59 DAA)” value (Lolium multiflorum LOLMU; [14]) was 50%, the “Observed Efficacy (O) in % (56-59 DAA)” value (Lolium multiflorum LOLMU; [15]) was 50% and the “Observed Efficacy (O) in % (56-59 DAA)” value [3, 13] was 57%. For the same molecule, the “Observed Efficacy (O) in % (56-59 DAA)” value [3, 15] was 59%, the “Observed Efficacy (O) in % (14-15 DAA)” value (Sonchus oleraceus SONOL; carfentrazone 20 gai/ha, clethodim 0, n=2) was 89% and the “Observed Efficacy (O) in % (14-15 DAA)” value (Sonchus oleraceus SONOL; [13]) was 92%. The “Observed Efficacy (O) in % (14 DAA)” value (Senecio vulgaris SENVU; [16]) was 88%, the “Observed Efficacy (O) in % (14 DAA)” value (Senecio vulgaris SENVU; [9]) was 92% and the “Observed Efficacy (O) in % (14 DAA)” value (Senecio vulgaris SENVU; [10]) was 97%. For the same molecule, the “Observed Efficacy (O) in % (14 DAA)” value (Senecio vulgaris SENVU; [11]) was 100% and the “Observed Efficacy (O) in % (14 DAA)” value (Senecio vulgaris SENVU; [12]) was 100%.
